Measurements taken from EP0774454A1, “Excitatory amino acid receptor antagonists” (ELI LILLY AND COMPANY, priority 1995, dated 1997).

Tested on: metabotropic glutamate receptors
Test: displacement of 1S,3R-ACPD-sensitive [3H]glutamate binding to rat brain cell membranes (crude membranes of rat forebrain)
Protocol: The binding of [^3H]glutamate was conducted with crude membranes of rat forebrain as described by Schoepp and True, Neuroscience Lett., 145, 100-104 (1992) and Wright et al., J. Neurochemistry 63, 938-945, 1994.

Compound | affinity for metabotropic glutamate receptors (result in words) | IC50 [µM]
N[C@]1(C(=O)O)C[C@@H](SCc2ccco2)[C@@H]2[C@@H](C(=O)O)[C@@H]21 (racemic) [Example 8, 1SR,2RS,4RS,5SR,6SR-2-Amino-4-((2-furanylmethyl)thio)bicyclo[3.1.0]hexane-2,6-dicarboxylic acid] | essentially inactive | –
NC1(C(=O)O)CC(Sc2ccccc2)C2C(C(=O)O)C21 (stereo not drawn) [Example 1, 1SR,2RS,4SR,5SR,6SR-2-Amino-4-(phenylthio)-bicyclo[3.1.0]hexane-2,6-dicarboxylic acid] | – | 0.242
